Patent US7759459B2, “Fluorescent assays for protein kinases” (Albert Einstein College of Medicine of Yeshiva University, priority 2003, dated 2010)

Tests used:
PKCα [1] = biological target: T1, PKCα (Homo sapiens, UniProt P17252); assay: Radioactive PKC assay ([γ-32P]ATP); assay type: biochemical; conditions: Table 2
Method: Radioactive PKC Assay—Radioactive assays were performed in duplicate at 30° C. The final assay volume totaled 40 μl and contained 62.5 mM HEPES (pH 7.4), 0.75 mM CaCl2, 12.5 mM MgCl2, 1 mM dithiothreitol, 0.5 mM EGTA, 7.5 μg/mL phosphatidylserine, 1.6 μg/mL diacylglycerol, and 10 ng of PKC. […] Phosphorylation reactions were initiated by the addition of 10 μL of PKC from a stock solution (20 mM Tris-HCl at pH 7.5, 1 mM dithiothreitol, 1 mM EDTA, and 0.75 mg/mL bovine serum albumin) into 30 μL of assay buffer containing peptide substrate. Reactions were terminated after 5 min by spotting 25 μL aliquots onto phosphocellulose paper disks (2.1 cm in diameter). After 10 s, the disks were immersed in 10% glacial acetic acid and soaked with occasional stirring for at least 1 h. The acetic acid was decanted and the disks were collectively washed with four volumes of 0.5% H3PO4, 1 volume of water, followed by a final acetone rinse. The disks were air dried and then counted in a Beckman LS scintillation counter.

PKCα [2] = biological target: T1, PKCα; assay: Fluorescent PKC assay (spectrofluorimetry); assay type: biochemical; conditions: PKC/ATP; fluorescence assay
Method: Fluorescent PKC assay-Fluorescence assays were performed in triplicate at 30° C. and initiated by addition of ATP to a 100 μL cuvette containing a 50 μL solution of PKC and peptide substrate 2. Final conditions: 62.5 mM HEPES pH 7.4, 3 mM MgCl2, 0.3 mM CaCl2, 0.1 mM EGTA, 1 mM DTT, 0.5 μg/mL phosphatidylserine, 0.1 μg/mL diacylglycerol, 1 mM ATP, and 13 nM PKC. After the addition of ATP, the solution was gently mixed and the time-dependent change in fluorescent intensity (excitation: 520 nm, emission: […]) continuously monitored with a Photon Technology QM-1 spectrofluorimeter.

PKC in HeLa cells = assay: Microinjection studies in TPA-stimulated living HeLa cells; assay type: cell-based; conditions: co-injected with peptide 2; 20 μM estimated intracellular concentration
Method: Microinjection Studies-Subconfluent, serum-starved (24 hr), HeLa cells were cultured on 22 mm coverslips in DMEM in a humidified atmosphere containing 5% CO2. […] Microinjections were performed with an Eppendorf (Brinkman Instruments, Westbury, N.Y.) 5246 microinjection apparatus mounted on the microscope inside the environmental chamber. The peptide was estimated to be diluted 10-fold upon microinjection, using the equation for volume (V) flow through a capillary tube:
[formula] where p is the difference in pressure at the ends of the tube (290 hPa), r the radius (0.05 μm) and l the length (10 μm) of the tube, η the viscosity of the injected solution (0.69×10^−2 g/cm-sec), and t the total injection time (0.3 sec). The average volume of a fibroblast was taken as 2 pL.^18 12-O-tetradecanoyl phorbol-13-acetate (TPA) (1 μM) was added to the media following microinjection to stimulate PKC activity. […] Fluorescence intensity measurements were corrected using values from a standard photobleaching curve generated from control experiments with microinjected HeLa cells that had not been treated with TPA. […]

PKC = conditions: cited from earlier work

For “H2N-Ser-Phe-Arg4-Lys(NBD)-amide [peptide 3]”, the Km (PKCα [1]) was 19 ± 1 µM, the kcat (PKCα [1]) was 3.5 ± 0.167 s⁻¹ and the “fluorescence intensity change following phosphorylation (in words)” value (PKCα [2]) was “No Fluorescence Intensity Change”.
For `CN(C)CCCn1cc(C2=C(c3c[nH]c4ccccc34)C(=O)NC2=O)c2ccccc21` [GF 109203X], the “effect of inhibitor on TPA-induced enhancement in cellular fluorescence” value (PKC in HeLa cells) is listed as “effectively blocks the TPA-induced enhancement in cellular fluorescence” and the Ki (PKC) is listed as “low nanomolar range”.
